Results as given in the NIST ThermoML archive (doi:10.1016/j.fluid.2006.09.001).
Values joined by “and” are separate entries in the source; they are usually repeats but may differ in a detail not shown here. Equal values may be shown once.

Conditions: Liquid, Transpiration method

COCCOCCOCCOc1ccccc1Br [1-bromo-2-(2-(2-(2-methoxyethoxy)ethoxy)ethoxy)benzene]
Conditions	vapor or sublimation pressure [kPa]
333.2 K	6.1e-05
337.3 K	8.8e-05
339.3 K	0.000111
341.3 K	0.000132
343.4 K	0.000158
345.5 K	0.000188
347.5 K	0.000218
349.7 K	0.000272
351.7 K	0.000329
353.6 K	0.000382
355.7 K	0.000446
357.8 K	0.000555
359.8 K	0.000649
360.6 K	0.000704
362 K	0.000796
363 K	0.000826
365 K	0.000993
367.9 K	0.001244
369.9 K	0.001446

COCCOCCOc1ccccc1Br [1-bromo-2-(2-(2-methoxyethoxy)ethoxy)benzene]
Conditions	vapor or sublimation pressure
310.4 K	9e-05 kPa
313.2 K	0.00012 kPa
317.4 K	0.00016 kPa
318.6 K	0.00019 kPa
320.3 K	0.00021 kPa
322.6 K	0.00026 kPa
324.3 K	0.0003 kPa
325.4 K	0.00036 kPa
327.6 K	0.00043 kPa
327.7 K	0.00043 kPa
328.3 K	0.00047 kPa and 0.00045 kPa
329 K	0.00045 kPa
332.4 K	0.00063 kPa
332.5 K	0.00062 kPa
332.7 K	0.00063 kPa
334.5 K	0.00076 kPa
335.4 K	0.00081 kPa
337.9 K	0.00096 kPa
339.1 K	0.00113 kPa
342 K	0.00135 kPa
343.5 K	0.00153 kPa
345 K	0.00167 kPa
346.5 K	0.00205 kPa
347.6 K	0.00219 kPa
348 K	0.0022 kPa
349.5 K	0.00252 kPa
350.1 K	0.00253 kPa
350.6 K	0.0028 kPa
353 K	0.00325 kPa
355.1 K	0.00383 kPa
356 K	0.0041 kPa
359.2 K	0.0052 kPa
360.3 K	0.00566 kPa
361.1 K	0.00611 kPa
363.3 K	0.007 kPa
365.2 K	0.00835 kPa
368.4 K	0.01027 kPa and 0.01025 kPa
370.8 K	0.01177 kPa
373.5 K	0.01407 kPa

COCCOc1ccccc1Br [1-bromo-2-(2-methoxyethoxy)benzene]
Conditions	vapor or sublimation pressure
302.4 K	0.0011 kPa
307.4 K	0.00174 kPa
312.4 K	0.00268 kPa
315 K	0.00321 kPa
317.5 K	0.00391 kPa
319.5 K	0.00453 kPa and 0.00475 kPa
322.6 K	0.0062 kPa
324.6 K	0.00691 kPa
327.6 K	0.00867 kPa
332.7 K	0.01255 kPa
337.8 K	0.01854 kPa
343 K	0.02628 kPa
348.1 K	0.03518 kPa
353.2 K	0.04763 kPa
356.3 K	0.05583 kPa
358.2 K	0.06719 kPa
360.7 K	0.07401 kPa
361.8 K	0.07914 kPa
363.3 K	0.08516 kPa
366.8 K	0.1095 kPa
368.4 K	0.1199 kPa
